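All cell lines were grown in 96-well plates and treated with compound for 48 hours. Here, GI50 denotes the concentration required for 50% inhibition of growth.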 The source made the active and inactive calls. No stated cut-off is given here; in the data, active = GI50 up to about 1.1 µM and inactive = higher.
Experiments:
Test in all cases: DTP human tumour cell line panel, 48 h
RPMI-8226 = test system: RPMI-8226
LOX IMVI = test system: LOX IMVI
NCI-H522 = test system: NCI-H522
UACC-62 = test system: UACC-62
K562 = test system: K562
DU-145 = test system: DU-145
SK-OV-3 = test system: SK-OV-3
786-0 = test system: 786-0
HOP-62 = test system: HOP-62
COLO 205 = test system: COLO 205
RXF 393 = test system: RXF 393
OVCAR-3 = test system: OVCAR-3
A498 = test system: A498
SK-MEL-5 = test system: SK-MEL-5
ACHN = test system: ACHN
NCI-H23 = test system: NCI-H23
IGROV-1 = test system: IGROV-1
PC-3 = test system: PC-3
HT-29 = test system: HT-29
SK-MEL-28 = test system: SK-MEL-28

Row | SMILES | GI50 (RPMI-8226) | GI50 (LOX IMVI) | GI50 (NCI-H522) | GI50 (UACC-62) | GI50 (K562) | GI50 (DU-145) | GI50 (SK-OV-3) | GI50 (786-0) | GI50 (HOP-62) | GI50 (COLO 205) | GI50 (RXF 393) | GI50 (OVCAR-3) | GI50 (A498) | GI50 (SK-MEL-5) | GI50 (ACHN) | GI50 (NCI-H23) | GI50 (IGROV-1) | GI50 (PC-3) | GI50 (HT-29) | GI50 (SK-MEL-28)
1 | CC1=C(C(=O)OC(C)(C)C)C(c2ccc([N+](=O)[O-])cc2)C(C(=O)OC(C)(C)C)=C(C)N1 | 17 µM (inactive) | 18.5 µM (inactive) | 18.5 µM (inactive) | 16.6 µM (inactive) | 25.4 µM (inactive) | 26.9 µM (inactive) | 32.4 µM (inactive) | 22.1 µM (inactive) | 23.4 µM (inactive) | 22.6 µM (inactive) | 19.3 µM (inactive) | 20.1 µM (inactive) | 22.8 µM (inactive) | 18.2 µM (inactive) | 21.4 µM (inactive) | 19.6 µM (inactive) | 16.8 µM (inactive) | 26.7 µM (inactive) | 19.8 µM (inactive) | 20.1 µM (inactive)
2 | Cc1ccc(S(=O)(=O)NCc2cccc([N+](=O)[O-])c2)cc1 | > 100 µM (inactive) | > 100 µM (inactive) | 64.6 µM (inactive) | > 100 µM (inactive) |  | > 100 µM (inactive) | > 100 µM (inactive) | > 100 µM (inactive) | > 100 µM (inactive) | > 100 µM (inactive) | > 100 µM (inactive) | 72.8 µM (inactive) | > 100 µM (inactive) | > 100 µM (inactive) | > 100 µM (inactive) | > 100 µM (inactive) | > 100 µM (inactive) | > 100 µM (inactive) | > 100 µM (inactive) | > 100 µM (inactive)
3 | O=c1[nH]c(=O)n(C2OC(CO)C(O)C2O)c2ncc(-c3ccc(-c4ccccc4)cc3)nc12 (stereo not drawn) | > 20 µM (inactive) | > 20 µM (inactive) | > 20 µM (inactive) | > 20 µM (inactive) | > 20 µM (inactive) | > 20 µM (inactive) | > 20 µM (inactive) | > 20 µM (inactive) | > 20 µM (inactive) | > 20 µM (inactive) | > 20 µM (inactive) |  | > 20 µM (inactive) | > 20 µM (inactive) | > 20 µM (inactive) | > 20 µM (inactive) | > 20 µM (inactive) | > 20 µM (inactive) | > 20 µM (inactive) | 
4 | COc1ccc(N2C(=O)C(=O)N(c3ccc(/N=N\c4ccccc4)cc3)C2=S)cc1 | 40.7 µM (inactive) | 18.7 µM (inactive) | 5.37 µM (inactive) | 16.6 µM (inactive) | 37.5 µM (inactive) | 16 µM (inactive) | 20.2 µM (inactive) | 17.5 µM (inactive) | 18.6 µM (inactive) | 17.1 µM (inactive) | 17.3 µM (inactive) |  | 23.8 µM (inactive) | 16.7 µM (inactive) | 19 µM (inactive) | 18.5 µM (inactive) | 16.6 µM (inactive) | 17.6 µM (inactive) | 18.6 µM (inactive) | 23.2 µM (inactive)
5 | CC(=O)OCC1OC(n2c3c(c(-c4ccc(Cl)cc4)c(C#N)c2=S)C(=O)CC(C)(C)C3)C(OC(C)=O)C(OC(C)=O)C1OC(C)=O (stereo not drawn) | 4.59 µM (inactive) | 7.55 µM (inactive) | 4.94 µM (inactive) | 7.62 µM (inactive) | 3.23 µM (inactive) | 50.9 µM (inactive) |  | 12.8 µM (inactive) | 42 µM (inactive) | 25 µM (inactive) | 7.48 µM (inactive) | 32.7 µM (inactive) | 30.3 µM (inactive) | 11.7 µM (inactive) | 28.5 µM (inactive) | 28.8 µM (inactive) | 40.7 µM (inactive) | 10.9 µM (inactive) | 15.7 µM (inactive) | 23.6 µM (inactive)
6 | COC(=O)c1ccccc1/C=C1\Cc2c(C)c3c(c(C)c2C1=O)CCC3 | > 100 µM (inactive) | > 100 µM (inactive) | > 100 µM (inactive) | > 100 µM (inactive) | > 100 µM (inactive) | > 100 µM (inactive) |  | 46.6 µM (inactive) | > 100 µM (inactive) | > 100 µM (inactive) | > 100 µM (inactive) | > 100 µM (inactive) | > 100 µM (inactive) | > 100 µM (inactive) | > 100 µM (inactive) | > 100 µM (inactive) | > 100 µM (inactive) | > 100 µM (inactive) | > 100 µM (inactive) | > 100 µM (inactive)
7 | O=C(OCC(OC(=O)c1ccccc1)C1CC(C(O)C2CCCCC2)C(=O)O1)c1ccccc1 (stereo not drawn) | 24.2 µM (inactive) | 37.4 µM (inactive) | 22.2 µM (inactive) | > 100 µM (inactive) | 21.4 µM (inactive) | > 100 µM (inactive) | > 100 µM (inactive) | > 100 µM (inactive) | 49.5 µM (inactive) | 45.9 µM (inactive) | > 100 µM (inactive) | 35.3 µM (inactive) | > 100 µM (inactive) | 17.3 µM (inactive) | > 100 µM (inactive) | > 100 µM (inactive) | 32.2 µM (inactive) | 45.7 µM (inactive) |  | 
8 | [O-]/[N+](=N\c1ccccc1CO)c1ccccc1CO | > 100 µM (inactive) | > 100 µM (inactive) | > 100 µM (inactive) | > 100 µM (inactive) | > 100 µM (inactive) | > 100 µM (inactive) | > 100 µM (inactive) | > 100 µM (inactive) |  | > 100 µM (inactive) | > 100 µM (inactive) | > 100 µM (inactive) | > 100 µM (inactive) | > 100 µM (inactive) |  | > 100 µM (inactive) |  | > 100 µM (inactive) | > 100 µM (inactive) | > 100 µM (inactive)
9 | C[C@@]12CCC3C1C=C1C(=O)c4cc(O)ccc4C(=O)[C@]1(O2)[C@@]3(C)C=O | 2.2 µM (inactive) | 2.57 µM (inactive) | 2.94 µM (inactive) | 7.43 µM (inactive) | 2.3 µM (inactive) | 2.91 µM (inactive) | 10.2 µM (inactive) | 4.14 µM (inactive) | 8.59 µM (inactive) | 9.31 µM (inactive) | 4.3 µM (inactive) | 3.72 µM (inactive) | 1.48 µM (inactive) | 7.29 µM (inactive) | 7.11 µM (inactive) | 3.93 µM (inactive) | 5.55 µM (inactive) | 7.8 µM (inactive) | 4.67 µM (inactive) | 
10 | CCc1cccc(CC)c1Nc1nc(-c2ccccc2-c2ccccc2)cs1 | 30.3 µM (inactive) | > 100 µM (inactive) | 84.7 µM (inactive) | 86.5 µM (inactive) | 51.5 µM (inactive) | > 100 µM (inactive) | > 100 µM (inactive) | > 100 µM (inactive) | > 100 µM (inactive) | 66.5 µM (inactive) | > 100 µM (inactive) | 57.1 µM (inactive) | > 100 µM (inactive) | 79.1 µM (inactive) | > 100 µM (inactive) | 93.8 µM (inactive) | 43.7 µM (inactive) | 53.2 µM (inactive) |  | > 100 µM (inactive)
11 | COc1ccc(S(=O)(=O)Nc2ccc(-c3csc(N4C(=O)/C(=C/C=C\c5ccccc5)N=C4c4ccccc4)n3)cc2)cc1Cl |  | 19.8 µM (inactive) | 18.5 µM (inactive) | 19.4 µM (inactive) | 35.2 µM (inactive) | 31.8 µM (inactive) | 65.3 µM (inactive) | 31.3 µM (inactive) | 31.3 µM (inactive) | 39.4 µM (inactive) | 22.3 µM (inactive) | 26.7 µM (inactive) | 22.5 µM (inactive) | 27.4 µM (inactive) | 31.1 µM (inactive) | 18.9 µM (inactive) | 19.9 µM (inactive) | 31.3 µM (inactive) | 56.8 µM (inactive) | 59.7 µM (inactive)
12 | CCCSc1ccc2[nH]c(/N=C/c3ccccc3)cc2c1 | 14.8 µM (inactive) | 17.4 µM (inactive) | 15.6 µM (inactive) | 17.4 µM (inactive) | 8.34 µM (inactive) | 30.5 µM (inactive) |  | 19.1 µM (inactive) |  | 19.3 µM (inactive) | 16.4 µM (inactive) | 22.1 µM (inactive) | 28.8 µM (inactive) | 7.14 µM (inactive) | 31.2 µM (inactive) | 41.7 µM (inactive) | 31.8 µM (inactive) | 34.1 µM (inactive) | 22.3 µM (inactive) | 23.7 µM (inactive)
13 | Nc1nnc(-c2ccco2)c(-c2ccco2)n1 | > 100 µM (inactive) |  | > 100 µM (inactive) | > 100 µM (inactive) | > 100 µM (inactive) | > 100 µM (inactive) | > 100 µM (inactive) | > 100 µM (inactive) |  | > 100 µM (inactive) | > 100 µM (inactive) | > 100 µM (inactive) | > 100 µM (inactive) | > 100 µM (inactive) | > 100 µM (inactive) | > 100 µM (inactive) | > 100 µM (inactive) | > 100 µM (inactive) | > 100 µM (inactive) | > 100 µM (inactive)
14 | CNC(=O)OCc1c(COC(=O)NC)c(-c2ccc(Cl)c(Cl)c2)n2c1SCC2 | 12.2 µM (inactive) | 12.4 µM (inactive) | 8.85 µM (inactive) | 5.74 µM (inactive) | 11 µM (inactive) | 17.2 µM (inactive) | 6.21 µM (inactive) | 16.7 µM (inactive) | 17.8 µM (inactive) | 9.82 µM (inactive) | 3.31 µM (inactive) | 16.7 µM (inactive) | 0.836 µM (active) | 13.5 µM (inactive) | 3.61 µM (inactive) | 21 µM (inactive) |  | 17.1 µM (inactive) | 10 µM (inactive) | 10.8 µM (inactive)
15 | COc1cc(O)c2c(=O)cc(-c3ccc(O)cc3O)oc2c1CC=C(C)C [ARTOCARPETIN A] | 20.3 µM (inactive) | 11.9 µM (inactive) | 16 µM (inactive) | 20 µM (inactive) | 17 µM (inactive) | 30.2 µM (inactive) |  | 26.6 µM (inactive) |  | 9.25 µM (inactive) | 6.3 µM (inactive) |  | 22.1 µM (inactive) | 18.3 µM (inactive) | 16.3 µM (inactive) | 17.6 µM (inactive) | 20.3 µM (inactive) | 12.9 µM (inactive) | 4.35 µM (inactive) | 29.1 µM (inactive)
